Laboratory results taken from patent publication US20150368220A1, “PHARMACEUTICAL COMPOSITION FOR TREATING OR PREVENTING STRESS URINARY INCONTINENCE OR MIXED URINARY INCONTINENCE, AND METHOD FOR SCREENING COMPOUND COMPRISED IN SAID PHARMACEUTICAL COMPOSITION” (Astellas Pharma Inc., priority 2012, published 2015).

Tests used:
isolated bladder = assay: Isolated bladder contraction (Example 6); conditions: isolated bladder of SD female rat, cumulative addition
Source text: (§1) (1) The bladder and uterus were isolated from an SD female rat having a body weight of 100 g to 500 g. For the isolated bladder, the parts below the parietal region and the triangular portion were resected to make only the body portion into a ring state, and further, one side of the tissue in the ring state was cut to a band-shaped tissue. The bladder in the band shape was isolated parallel to the median axis of the bladder to prepare strip-shaped specimens having a length of about 10 mm and a width of about 3 mm. The specimens were suspended in a 10 mL tissue bus filled with a Krebs-Henseleit solution (pH 7.4) at a resting tension of 0.5 g and the isometric contraction was recorded. For the isolated uterus, the edge portion of the uterus was cut and incised vertically, whereby a strip-shaped specimen having a width of about 6 mm was then prepared. The specimens were suspended in a 10 mL tissue bus filled with a Krebs—Henseleit solution (pH 7.4) at a resting tension of 0.5 g and the isometric contraction was recorded. […] For the bladder specimen, after the resting tension was stabilized, a 60 mM KCl solution or a 10 μM carbachol solution was added thereto to cause contraction. The specimens were washed and stabilized, and then the compounds were cumulatively administered.

isolated urethra = assay: Urethra contracting action using isolated urethra (Example 3); conditions: isolated urethra of SD female rat, cumulative 10^-5 M to 10^-12 M, FIGS. 6 and 7
Description: The urethra was isolated from an SD female rat having a body weight of 100 g to 500 g. The isolated urethra was incised vertically and then made into strip-shaped specimens having a width of about 3 mm. The specimens were suspended in a 10 mL tissue bus filled with a Krebs—Henseleit solution (pH 7.4) in the circular muscle direction. The Krebs—Henseleit solution was aerated at 95% O2 and 5% CO2, and warmed at 37° C. The resting tension was set to 0.5 g and the isometric contraction was recorded. After the resting tension was stabilized, a 10 μM phenylephrine solution was added thereto to cause contraction.

SD female rat [1] = assay: Effect on urethral pressure, perfusion method (Example 4); type: in vivo; conditions: intravenous, anesthetized SD female rat, FIGS. 10 to 14
Description: An SD female rat was anesthetized with urethane and allowed to undergo laparotomy, the bladder dome was then incised, and a catheter having a barb at the tip was inserted toward the urethra from the bladder, and ligated and fixed such that the tip of the catheter was positioned around the proximal urethra. Physiological saline was injected at a predetermined flow rate into the urethra through the catheter and the urethral pressure was measured with a pressure transducer. After the urethral pressure was stabilized, compounds dissolved in physiological saline, or physiological saline containing 5% N,N-dimethylacetamide(DMA) and 0.5% Cremophor were intravenously administered at a dose of 1 μg/kg, 10 μg/kg, 100 μg/kg, or 1000 μg/kg and a change in the urethral pressure was measured.

SD female rat [2] = assay: Effect on urethral pressure, microchip method (Example 4); type: in vivo; conditions: intravenous, anesthetized SD female rat, FIGS. 8 and 9
Source text: An SD female rat was anesthetized with urethane and allowed to undergo laparotomy, and then a catheter was mounted in the bladder dome for urine leakage in the bladder. Further, a catheter was mounted in the femoral vein for the administration of a compound and a catheter was mounted in the carotid artery for the measurement of blood pressure described in Example 6 as described later. […] The catheter mounted in the carotid artery was attached to a pressure transducer and the blood pressure was measured.

SD female rat [3] = assay: Effect on rat blood pressure (Example 6); type: in vivo; conditions: intravenous, at a dose for increasing the urethral pressure, FIGS. 21 and 22
Source text: An SD female rat was anesthetized with urethane and allowed to undergo laparotomy, and then a catheter was mounted in the bladder dome for urine leakage in the bladder. Further, a catheter was mounted in the femoral vein for the administration of a compound and a catheter was mounted in the carotid artery for the measurement of blood pressure described in Example 6 as described later. A microchip transducer catheter (Milar Instruments) was inserted toward the bladder from the external urethral meatus for the measurement of the urethral pressure, and fixed such that the transducer portion was positioned around the portion at which the urethral pressure was maximized (10.0 mm to 15.0 mm from the external urethral meatus). The catheter mounted in the carotid artery was attached to a pressure transducer and the blood pressure was measured.
(2) In the experiment for measuring the urethral pressure in Example 4, the blood pressure was measured simultaneously. After the urethral pressure and the blood pressure were stabilized, the compound was administered and a change in the blood pressure was measured.

isolated uterus = assay: Isolated uterus contraction (Example 6); conditions: isolated uterus of SD female rat; for contraction action on the isolated uterus: cumulative 10^-5 M to 10^-11 M
Source text: as §1

human MT1 receptor = molecular target: T1, human MT1 receptor (Homo sapiens, UniProt P48039); assay: Intracellular Ca2+ concentration by FLIPR in human MT1 receptor expressing cells (Example 2); type: cell-based; conditions: human MT1 receptor expressing HEK293 cells, 10^-5 M to 10^-12 M, FIGS. 2 and 4
T1 construct: expressed in transfected cells; vector pCDNA3.1/Zeo; co-transfected with a Gq/i chimeric G protein expression vector
T1 sequence (P48039 whole entry): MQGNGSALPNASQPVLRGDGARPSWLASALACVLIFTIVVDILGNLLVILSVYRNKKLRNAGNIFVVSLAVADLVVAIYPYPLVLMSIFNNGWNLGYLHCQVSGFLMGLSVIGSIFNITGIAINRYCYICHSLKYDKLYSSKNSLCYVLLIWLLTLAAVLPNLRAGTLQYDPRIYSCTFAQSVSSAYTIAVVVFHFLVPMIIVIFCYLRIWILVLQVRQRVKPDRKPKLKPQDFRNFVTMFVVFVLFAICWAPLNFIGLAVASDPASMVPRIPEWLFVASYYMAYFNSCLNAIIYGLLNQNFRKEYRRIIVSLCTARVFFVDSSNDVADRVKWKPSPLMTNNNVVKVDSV
Description: (§2) The expression vectors for human MT1 and MT2 receptors were introduced into HEK293 cells, together with a Gq/i chimeric G protein expression vector, respectively. The incorporation was carried out in accordance with instructions, using a Lipofectoamine (registered trademark) 2000 Reagent (Invitrogen Inc.). Using Zeocin and hygromycin as a resistant agent, the cells were cultured for 15 days in the presence of 0.02 mg/mL and 0.05 mg/mL of the agents, respectively, thereby acquiring a drug-resistant clone.
(§3) The respective stably expressing cells were dispensed into 96 wells in a poly-D-lysine-coated plate (Falcon) the day before the experiment to give 40,000 cells/well, and cultured in a DMEM (Invitrogen Inc.) medium containing 10% FBS at 37° C. and 5% CO2 overnight. The medium was replaced with a loading buffer (a washing solution containing 4 μM Fluo-4AM (Dojindo Co.) (Hank's balanced salt solution (HBSS), 20 mM HEPES-NaOH, 2.5 mM probenecid)) and cultured at 37° C. and 5% CO2 for 1 hour.

human MT2 receptor = molecular target: T2, human MT2 receptor (Homo sapiens, UniProt P49286); assay: Intracellular Ca2+ concentration by FLIPR in human MT2 receptor expressing cells (Example 2); type: cell-based; conditions: human MT2 receptor expressing HEK293 cells, 10^-5 M to 10^-12 M, FIGS. 3 and 5
T2 construct: expressed in transfected cells; vector pCDNA3.1/Zeo; co-transfected with a Gq/i chimeric G protein expression vector
T2 sequence (P49286 1-362): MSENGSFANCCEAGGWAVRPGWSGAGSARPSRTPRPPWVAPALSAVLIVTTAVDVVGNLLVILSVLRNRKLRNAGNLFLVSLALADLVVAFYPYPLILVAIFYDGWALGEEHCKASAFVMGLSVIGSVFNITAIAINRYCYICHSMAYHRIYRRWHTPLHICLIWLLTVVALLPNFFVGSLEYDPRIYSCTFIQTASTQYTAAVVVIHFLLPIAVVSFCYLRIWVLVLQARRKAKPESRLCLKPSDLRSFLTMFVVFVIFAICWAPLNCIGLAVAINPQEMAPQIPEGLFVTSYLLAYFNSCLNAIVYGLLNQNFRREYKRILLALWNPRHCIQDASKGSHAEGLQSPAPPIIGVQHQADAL
Description: as §2, §3

Structure (SMILES) | contraction action on the isolated bladder (isolated bladder) | urethra contracting action (isolated urethra) | urethral pressure increasing action (SD female rat [1]) | urethral pressure increasing action (SD female rat [2]) | effect on blood pressure (mean blood pressure) (SD female rat [3]) | contraction action on the isolated uterus (isolated uterus) | intracellular Ca^2+ concentration (melatonin receptor activating action) (human MT1 receptor) | effect on the rhythmic contraction of the isolated uterus (isolated uterus; FIG. 20) | intracellular Ca^2+ concentration (melatonin receptor activating action) (human MT2 receptor)
COc1ccc2[nH]cc(CCNC(C)=O)c2c1 [melatonin] | did not exhibit a contraction action | contracted the isolated urethra | increased the urethral pressure | increased the urethral pressure | did not increase the blood pressure | did not exhibit a contraction action |  |  | 
CCC(=O)NCC[C@@H]1CCc2ccc3c(c21)CCO3 [ramelteon, (S)-N-[2-(1,6,7,8-tetrahydro-2H-indeno[5,4-b]furan-8-yl)ethyl]propionamide] | did not exhibit a contraction action | contracted the isolated urethra | increased the urethral pressure | increased the urethral pressure | did not increase the blood pressure | did not exhibit a contraction action | increased | did not have an effect | increased
